Data on one compound can be found in patent US11266654B2 (AI Therapeutics, Inc., priority 2014, dated 2022).

For one series, the system named is Normal lung fibroblasts. Description: Cytotoxicity on normal cells. The format is cell-based. The settings on record: concentrations as high as 10 micromolar. The source says: (§1) 35 cell lines were identified as sensitive to apilimod-induced cytotoxicity.
Series [1] deals with 122 human cancer cell lines. The series can be described thus: Cancer cell line sensitivity screen (cell viability). The class given is cell-based. The conditions noted are these: non-Hodgkin's Lymphoma cell lines; sensitive if IC50 less than 500 nM.
Text: as §1
The most sensitive of those tested were non-Hodgkin's Lymphoma (NHL) cell lines. […] NHL represents a diverse group of hematopoietic malignancies that vary in severity, with subtypes ranging from slow growing to aggressive. Subtypes of NHL include diffuse large B cell lymphoma (DLBCL), Burkitt's lymphoma, mantle lymphoma, and follicular B cell lymphoma. DLBCL is divided into two subtypes, GCB and ABC, based on gene expression and cell of origin. The GCB are germinal center B cell type, arising from normal germinal center B cells, and the ABC are activated B cell type, arising from post-germinal center B cells in the process of differentiating into plasma cells.

In the next series the test system is SUDHL-4 cells. The series can be described thus: Screen of 93-drug library with and without apilimod (CellTiter-Glo 72 h). The class given is cell-based. The conditions noted are these: Homo sapiens, SU-DHL-4. The source says:
A manually curated library of 93 drugs including both FDA approved and unapproved drugs was used in the screen.
A general note: Cellular ATP, detected with luciferase, serves as a proxy for viable cell number.

Series [2] has as its system diffuse large B cell lymphoma cells. Description: Apotox-Glo Triplex assay (viability, apoptosis, necrosis). The class given is cell-based. The settings on record: 48 hours. The protocol: Apoptosis was quantified and distinguished from necrosis using the Apotox-Glo Triplex assay (Promega, Inc.) according to the manufacturer's instructions. In this assay, viability, apoptosis, and necrosis are assessed simultaneously using three different markers (GF-AFC, Caspase-3/7, and bis-AAF-R110, respectively).

The test system of the next series is H4 neuroglioma cell line. Description: Cyto-ID Autophagy detection. The conditions noted are these: 72 hours of treatment. The format is cell-based, Human. The source says:
Autophagy was quantified using the Cyto-ID Autophagy detection kit (Enzo) according to manufacturer's directions.

Series [3] has as its system representative cancer cell line. Description: Vacuolization of live cells. The settings on record: 500 nM, 24 h. The format is cell-based.
In series [4] the test system is peripheral blood mononuclear cells. The settings on record: peripheral blood mononuclear cells (Wada et al. 2007); cited from earlier work.
A further series deals with U937. The settings on record: U937 (WO 2006/128129); cited from earlier work.
For a further series, the system named is HELA. The conditions noted are these: HELA (WO 2006/128129); cited from earlier work.
Another series relates to Jurkat. The conditions noted are these: Jurkat (WO 2006/128129); cited from earlier work.
The subject of the next series is THP-1. The conditions noted are these: THP-1 (WO 2006/128129); cited from earlier work.
In a further series the test system is IL-12/IL-23 synthesis. The settings on record: psoriasis, oral administration, open label (Wada et al. 2012); cited from earlier work.
The conditions of series [5]: active Crohn's disease, placebo-controlled (Sands et al. 2010); cited from earlier work.

For `Cc1cccc(/C=N/Nc2cc(N3CCOCC3)nc(OCCc3ccccn3)n2)c1` [apilimod], in the series with Normal lung fibroblasts, the apilimod-induced cytotoxicity entry is recorded as “insensitive”. For the same compound, the “percentage of NHL cell lines tested that were sensitive” value in series [1] was “over 50%”. Moreover, the IC20 (commonly the concentration at which the effect reaches the 20% level) with SUDHL-4 cells came out at 10 nM. For the same compound, the “apoptosis (Caspase-3/7 marker)” value in series [2] is recorded as “increased apoptosis”. Further, the “autophagy (autophagic vacuoles)” value in the series with H4 neuroglioma cell line is reported as “induced autophagy in a dose-dependent manner”. Besides, the vacuolization result in series [3] is “induces vacuolization”. For the same compound, the cytotoxicity result (in series [4]; in the series on U937; in the series with HELA; in the series on Jurkat; in the series with THP-1) was “not cytotoxic” in each case. Further, in the series with IL-12/IL-23 synthesis, the “immunomodulatory activity in patients” value is listed as “showed immunomodulatory activity”. Moreover, the clinical efficacy result in series [5] was “did not demonstrate efficacy over placebo”.
